One experiment deals with T cell genes. The settings on record: PHA-stimulated T cells, 2-deoxy-5-azaC.
For the next experiment, the system named is CD70 expression. In words: CD70 expression on CD4+ cells of PBMCs cultured with lupus medications. In kind it is cell-based, human. The settings on record: 1-100 μM, 24 hours, PBMCs with or without PHA. The procedure:
(§1) Cells and cell culture. Peripheral blood mononuclear cells (PBMCs) were isolated by density-gradient centrifugation. T cells were then isolated by E-rosetting (See, e.g., Golbus et al., Clin Immunol Immunopathol 46, 129 (1988)). […] Where indicated, the cells were cultured in RPMI 1640/10% fetal calf serum (FCS) supplemented with interleukin-2 (IL-2) (See, e.g., Richardson et al., Clin Immunol Immunopathol 55, 368 (1990)), in round-bottomed 5-ml culture tubes (Falcon). Cells were stimulated with 1 μg/ml of PHA (Remel) for 16 hours, then cultured in 24-well plates at a density of 1×10^6 for an additional 72 hours in the presence of 2-deoxy-5-azaC or 5-azaC (Sigma-Aldrich), procainamide (Sigma-Aldrich), hydralazine (Sigma-Aldrich), or the MEK inhibitors U0126 (Promega) or PD98059 (Promega). In other studies, PHA-stimulated PBMCs were cultured in RPMI 1640/10% FCS and treated with indomethacin, chloroquine, hydrocortisone, and 6-mercaptopurine (6-MP) (all from Sigma-Aldrich). TT48E, a cloned, CD4+, tetanus toxoid-reactive human T cell line, was cultured as previously described (Cornacchia et al., J Immunol 140, 2197 (1988); Richardson et al., Arthritis Rheum 35, 647 (1992)).
(§2) Flow cytometric analysis. The following fluorochrome-conjugated monoclonal antibodies were obtained from BD PharMingen (San Diego, Calif.): FITC-conjugated anti-human CD70, CD2, or isotype-matched controls; phycoerythrin (PE)-conjugated anti-CD2, CD4, and CD8; and CyChromeconjugated anti-HLA-DR, CD2, and isotype controls. Staining and multicolor flow cytometric analysis were performed (See, e.g., Hale et al., Cell Immunol 220, 51 (2002)) using saturating concentrations of antibody.

In a further experiment the test system is CD70 mRNA. In words: CD70 transcripts by real time RT-PCR in anti-CD3 + anti-CD28 stimulated CD4+ T cells. The class given is cell-based, human. The settings on record: 5 μm 5-azaC, 50 μm Pca, 20 μm Hyd, 40 μm U0126, 25 μm PD98059, 3 days. The procedure: (§3) In other studies, T cells were isolated by negative selection using magnetic beads and instructions provided by the manufacturer (Pan T cell Isolation Kit, Miltenyi), and the CD4+ or CD8+ subset was similarly isolated by magnetic cell sorting. Jurkat cells (E6-1) were cultured as previously described (See, e.g., Cornacchia et al., J Immunol 140:2197 (1998)). Purified human CD4+ T cells were first stimulated with plate bound anti-CD3 and soluble anti-CD28. Briefly, 24 well plates were coated with 300 μl of anti-CD3 (10 μg/ml in PBS—SouthernBiotech) 18 hours 4° C., washed, then 2×10^6 purified T cells were added to the wells in 2 ml RPMI 1640/10% FCS containing 2 μg/ml anti-CD28 (SouthernBiotech). The plates were incubated 37° C. in a humidified atmosphere containing 5% CO2 for 18-24 hours, then treated with 5 μm 5-azaC (Aldrich), 50 μm Pca (Sigma), 20 μm Hyd (Aldrich), 40 μm UO126 (Promega) or 25 μm PD98059 (Promega), and cultured for 3 additional days as described (See, e.g., Oelke et al., Arthritis Rheum 50:1850 (2004)).
(In general: Quantitative PCR measures a nucleic acid by following its amplification.)

The next experiment relates to T cell CD70 expression. In words: CD70 expression on PHA-stimulated T cells by flow cytometry. In kind it is cell-based, human. The settings on record: for CD70 expression on treated vs untreated PHA-stimulated T cells: unfractionated T cells, 3 days, 1 μM 5-azaC, dose-response for procainamide, PD98059, U0126. The procedure:
as §1, §2
The panel of inhibitors used included 5-azaC, an irreversible DNA methyltransferase inhibitor (See, e.g., Glover and Leyland-Jones, Cancer Treat Rep 71, 959 (1987)) procainamide, a competitive DNA methyltransferase inhibitor (See e.g., Scheinbart et al., J Rheumatol 18, 530 (1991)), and the ERK pathway inhibitors PD98059, U0126, and hydralazine.
Studies were performed examining the effects of the DNA methylation inhibitors on CD70 expression in CD4+ and CD8+ T cell subsets.
On the technique in general: A flow cytometer gives signals particle by particle.

The next experiment has as its system CD70 promoter. Nature of the experiment: Bisulfite sequencing of the CD70 promoter in CD4+ T cells. In kind it is cell-based, human. The settings on record: for methylation of the 10 CG pairs between −515 and −423 of the CD70 promoter: anti-CD3 and anti-CD28 stimulated CD4+ T cells vs stimulated untreated controls. The procedure: as §3
Bisulfite sequencing. The putative CD70 promoter was identified using the published CD70 cDNA sequence and Tfsitescan software. Deoxycytosine (dC) and deoxymethylcytosine (d^mC) bases in the gene promoter and 5′ flanking sequences were identified by bisulfite treatment of purified DNA followed by nested PCR amplification of 3 sequential fragments to span the entire region. The primers were designed to avoid CG pairs and to account for the conversion of dC to dU by the bisulfite. EcoRI sites were added to the forward primers, and XbaI to the reverse, to facilitate cloning. The amplified fragments were then cloned into PBS+, and 5 clones sequenced for each fragment. The primers used were: […]
The effect of lupus and DNA methylation inhibitors on a regulatory element in the CD70 promoter was examined. DNA was isolated from the CD4+ T cells of 7 healthy individuals or 6 lupus patients, bisulfite treated, the region from −466-−515, containing 6 CG pairs was amplified by PCR, and 5 fragments sequenced from each individual. The average methylation status of the 6 CG pairs for healthy versus lupus individuals is shown (FIG. 8, NI and Lupus, respectively). CD4+ T cells from 5 individuals were also stimulated with PHA, treated with the irreversible DNA methyltransferase inhibitor 5-azacytidine (5-azaC), and the methylation status of the 6 CG pairs similarly analyzed from the 25 fragments sequenced (FIG. 8, 5-azaC). […] Results are presented as the mean±SEM of the average methylation of the 6 CG pairs, measured from the 10-35 determinations/group.
The effects of the DNA methylation inhibitors on the methylation status of this region were then compared. […] Again, 5 cloned fragments were sequenced from each control, for a total of 35 determinations per CG pair. […] FIG. 14 compares the average methylation for the 10 CG pairs (−515 to −423) in the T cells treated with DNA methylation inhibitors relative to stimulated, untreated controls.

The target of experiment [1] is KIR3DL1 on human T cells (human) (UniProt P43629). Nature of the experiment: cell-based or functional assay.
KIR3DL1 on human T cells (human), sequence (P43629 22-444): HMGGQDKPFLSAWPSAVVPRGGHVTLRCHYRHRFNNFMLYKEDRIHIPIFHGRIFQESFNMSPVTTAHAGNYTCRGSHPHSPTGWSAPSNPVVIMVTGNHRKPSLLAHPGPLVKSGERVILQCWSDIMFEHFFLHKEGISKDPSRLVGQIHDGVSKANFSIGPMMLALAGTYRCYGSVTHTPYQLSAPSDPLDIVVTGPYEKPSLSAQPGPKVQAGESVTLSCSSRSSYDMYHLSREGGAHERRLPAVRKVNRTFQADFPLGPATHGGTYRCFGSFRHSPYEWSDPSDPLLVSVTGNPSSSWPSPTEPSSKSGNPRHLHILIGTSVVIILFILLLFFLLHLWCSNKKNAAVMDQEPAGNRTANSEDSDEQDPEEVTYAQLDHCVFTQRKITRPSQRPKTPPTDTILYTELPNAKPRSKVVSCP

With `Nc1ncn([C@H]2C[C@H](O)[C@@H](CO)O2)c(=O)n1` [2-deoxy-5-azaC], the “CD70 expression increase in treated cells relative to untreated controls” value with T cell genes (3 days, oligonucleotide arrays, mean±SEM, 2 independent experiments) is given as 2.6±0.6 fold. Further, in the experiment with T cell genes (treated vs untreated), the “genes decreased ≧2-fold” value was 12 genes and the “genes reproducibly increased ≧2-fold” value was found to be 118 genes.
As for `Sc1ncnc2nc[nH]c12` [6-MP, 6-mercaptopurine], the “CD70 expression on stimulated or unstimulated CD4+ cells” value with CD70 expression is reported as “No increase in CD70 expression was seen”.
For the compound `COc1cccc(-c2cc(=O)c3ccccc3o2)c1N` [PD98059], the “CD70 transcripts relative to β-actin, treated vs untreated” value with CD70 mRNA was “increase CD70 transcripts”. In addition, in the experiment with T cell CD70 expression (25 μM PD98059, n=3, P=0.032), the “increase of CD70 MFI on CD4+ T cells” value came to 1.63±0.43 fold. Also, in the experiment on T cell CD70 expression, the “CD70 expression on CD4+ T cells” value was “increased CD70 expression on CD4+ T cells” and the “CD70 expression on treated vs untreated PHA-stimulated T cells” value was “increase in CD70 expression with treatment”. Moreover, in the experiment on CD70 promoter, the “methylation of the 10 CG pairs between −515 and −423 of the CD70 promoter” value is “appears to demethylate”.
Consider `CCN(CC)CCCC(C)Nc1ccnc2cc(Cl)ccc12` (stereo not drawn) [chloroquine], for which the “CD70 expression on stimulated or unstimulated CD4+ cells” value in the experiment on CD70 expression was “No increase in CD70 expression was seen”.
Regarding `C[C@]12CCC(=O)C=C1CC[C@@H]1[C@@H]2[C@@H](O)C[C@@]2(C)[C@H]1CC[C@]2(O)C(=O)CO` [hydrocortisone], in the experiment on CD70 expression, the “CD70 expression on stimulated or unstimulated CD4+ cells” value was “No increase in CD70 expression was seen”.
For the compound `COc1ccc2c(c1)c(CC(=O)O)c(C)n2C(=O)c1ccc(Cl)cc1` [indomethacin], the “CD70 expression on stimulated or unstimulated CD4+ cells” value in the experiment on CD70 expression is “No increase in CD70 expression was seen”.
In the case of `CCN(CC)CCNC(=O)c1ccc(N)cc1` [procainamide], the “CD70 transcripts relative to β-actin, treated vs untreated” value in the experiment on CD70 mRNA is “increase CD70 transcripts”. In addition, in the experiment with T cell CD70 expression, the “CD70 expression on CD4+ T cells” value is recorded as “increased CD70 expression on CD4+ T cells” and the “CD70 expression on treated vs untreated PHA-stimulated T cells” value is reported as “increase in the ratio of the mean fluorescence intensity (MFI) of CD70 expression”. The “methylation of the CD70 promoter region −466-−515 (6 CG pairs)” value in the experiment on CD70 promoter (PHA-stimulated CD4+ T cells) was “demethylate this region”. Moreover, the “methylation of the 10 CG pairs between −515 and −423 of the CD70 promoter” value in the experiment with CD70 promoter is recorded as “appears to demethylate”.
In experiment [1], “anti-NKB1 (KIR3DL1) antibody (BD PharMingen)” came in with a % cytotoxicity (51Cr release from autologous monocytes/macrophages) (% cytotoxicity) of 37.

The values are drawn from US20110256121A1, “METHODS AND KITS FOR DIAGNOSING OR MONITORING AUTOIMMUNE AND CHRONIC INFLAMMATORY DISEASES” (THE REGENTS OF THE UNIVERSITY OF MICHIGAN, priority 2008, published 2011).
